The source of these data is patent publication US20240407991A1, “LOW PENETRATION SUNSCREEN COMPOSITIONS” (Johnson & Johnson Consumer Inc., priority 2023, published 2024).

This data set deals with skin. As to the kind of experiment: Skin permeation of UV filters and active agents after topical application. The following applies: from Compositions 27 to 31, topically applied.

In the case of `NC(=O)c1cccnc1` [niacinamide], the “skin permeation of cosmetically acceptable active agents” value is on record as “permeated the skin”.
